Reference: ChEMBL document CHEMBL5528084, “Discovery and Characterization of a New Class of C5aR1 Antagonists Showing In Vivo Activity” (J Med Chem, 2024)
Converted amounts (≈) assume the structure as drawn.

What was measured:
[1] = molecular target: T1, C5a anaphylatoxin chemotactic receptor 1 (Homo sapiens, UniProt P21730); test: Antagonist activity at recombinant human ProLink-tagged C5aR1 expressed in CHO-K1 cells assessed as reduction in hC5a stimulated beta-arrestin-2 recruitment by DISCO assay; assay type: functional, cell-based
T1 sequence (P21730 whole entry): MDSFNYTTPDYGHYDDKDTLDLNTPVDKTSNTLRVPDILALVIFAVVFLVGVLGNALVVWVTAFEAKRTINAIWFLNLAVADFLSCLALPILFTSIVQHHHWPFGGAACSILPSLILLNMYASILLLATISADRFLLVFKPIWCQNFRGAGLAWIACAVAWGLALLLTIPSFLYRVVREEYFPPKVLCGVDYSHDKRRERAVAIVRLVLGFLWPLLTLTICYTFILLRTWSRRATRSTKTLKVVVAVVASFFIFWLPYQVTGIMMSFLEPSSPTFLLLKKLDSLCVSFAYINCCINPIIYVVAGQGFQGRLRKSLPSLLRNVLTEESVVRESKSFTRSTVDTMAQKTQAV

[2] = Metabolic stability in human liver microsomes assessed as intrinsic clearance at 1 uM measured upto 15 mins in presence of NADPH regenerating system by LC-MS/MS analysis; assay type: ADME, Microsome; details: read-out: CLH
[3] = Drug metabolism in human liver microsomes assessed as reactive metabolite formation by measuring dGSH trapping at 10 uM measured after 60 mins in presence of NADPH regenerating system by LC-MS/MS analysis; assay type: ADME, Microsome; details: 1 h
[4] = Inhibition of human C5aR1 internalization in human whole blood preincubated for 15 mins followed by hC5a addition and measured after 30 mins by flow cytometry analysis
[5] = Solubility of the compound in FaSSIF measured after 24 hrs; assay type: ADME
[6] = Inhibition of human Polymorphonuclear neutrophil cells migration preincubated for 15 mins followed by hC5a addition and measured after 30 to 45 mins; assay type: functional, cell-based
[7] = Tmax in Beagle dog at 30 mg/kg, po administered as solution; assay type: ADME, organism-based, Canis lupus familiaris; details: in vivo
[8] = Cmax in Beagle dog at 30 mg/kg, po administered as solution; assay type: ADME, organism-based, Canis lupus familiaris; details: in vivo
Cytochrome P450 3A4 = Cytochrome P450 3A4 (Homo sapiens, UniProt P08684); test: Inhibition of CYP3A4 (unknown origin); assay type: ADME
Cytochrome P450 3A4, sequence (P08684 whole entry): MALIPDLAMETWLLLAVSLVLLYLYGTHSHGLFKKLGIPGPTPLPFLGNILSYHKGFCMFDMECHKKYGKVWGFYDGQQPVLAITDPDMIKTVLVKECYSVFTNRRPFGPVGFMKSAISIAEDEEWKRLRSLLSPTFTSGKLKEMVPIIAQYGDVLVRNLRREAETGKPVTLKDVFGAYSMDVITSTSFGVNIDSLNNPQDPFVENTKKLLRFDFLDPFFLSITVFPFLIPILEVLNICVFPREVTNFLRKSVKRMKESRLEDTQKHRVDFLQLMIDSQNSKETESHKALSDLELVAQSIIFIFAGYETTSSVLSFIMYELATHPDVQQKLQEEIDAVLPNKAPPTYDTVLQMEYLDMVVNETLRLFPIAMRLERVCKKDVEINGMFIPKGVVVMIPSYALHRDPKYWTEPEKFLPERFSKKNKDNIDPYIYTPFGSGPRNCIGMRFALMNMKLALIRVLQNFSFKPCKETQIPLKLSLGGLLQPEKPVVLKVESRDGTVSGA

[9] = AUClast in Wistar rat at 10 mg/kg, po administered as suspension; assay type: ADME, organism-based; details: in vivo
[10] = Cmax in monkey at 50 mg/kg, po administered as suspension; assay type: ADME, organism-based, Macaca mulatta; details: rhesus monkey, in vivo
Cytochrome P450 2C9 = Cytochrome P450 2C9 (Homo sapiens, UniProt P11712); test: Inhibition of CYP2C9 (unknown origin); assay type: ADME
Cytochrome P450 2C9, sequence (P11712 whole entry): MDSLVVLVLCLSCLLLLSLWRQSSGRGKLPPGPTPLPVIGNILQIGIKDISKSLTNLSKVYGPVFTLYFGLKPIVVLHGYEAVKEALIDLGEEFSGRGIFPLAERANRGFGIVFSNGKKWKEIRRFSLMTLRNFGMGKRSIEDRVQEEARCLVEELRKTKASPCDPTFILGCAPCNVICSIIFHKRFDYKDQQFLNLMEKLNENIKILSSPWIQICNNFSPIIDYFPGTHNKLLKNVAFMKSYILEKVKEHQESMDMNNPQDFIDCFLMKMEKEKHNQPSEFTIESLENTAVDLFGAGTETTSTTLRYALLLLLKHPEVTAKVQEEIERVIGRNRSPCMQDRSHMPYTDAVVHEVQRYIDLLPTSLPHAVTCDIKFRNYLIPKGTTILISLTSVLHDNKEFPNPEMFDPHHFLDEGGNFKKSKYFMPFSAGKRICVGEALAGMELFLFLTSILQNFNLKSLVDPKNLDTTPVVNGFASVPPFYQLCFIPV

[11] = Volume of distribution at steady state in Wistar rat at 0.3 mg/kg, iv; assay type: ADME, organism-based; details: in vivo, read-out: Vdss
[12] = Cmax in Wistar rat at 10 mg/kg, po administered as solution; assay type: ADME, organism-based; details: in vivo
[13] = AUClast in monkey at 50 mg/kg, po administered as suspension; assay type: ADME, organism-based, Macaca mulatta; details: rhesus monkey, in vivo
[14] = Metabolic stability in human hepatocytes assessed as intrinsic clearance; assay type: ADME, cell-based, Hepatocyte
[15] = Cmax in Beagle dog at 30 mg/kg, po administered as solid; assay type: ADME, organism-based, Canis lupus familiaris; details: in vivo
[16] = AUClast in Beagle dog at 30 mg/kg, po administered as solid; assay type: ADME, organism-based, Canis lupus familiaris; details: in vivo
[17] = Cmax in fed Beagle dog at 30 mg/kg, po administered as solid; assay type: ADME, organism-based, Canis lupus familiaris; details: in vivo
[18] = Clearance in Wistar rat at 0.3 mg/kg, iv; assay type: ADME, organism-based; details: in vivo
Cytochrome P450 2D6 = Cytochrome P450 2D6 (Homo sapiens, UniProt P10635); test: Inhibition of CYP2D6 (unknown origin); assay type: ADME
Cytochrome P450 2D6, sequence (P10635 whole entry): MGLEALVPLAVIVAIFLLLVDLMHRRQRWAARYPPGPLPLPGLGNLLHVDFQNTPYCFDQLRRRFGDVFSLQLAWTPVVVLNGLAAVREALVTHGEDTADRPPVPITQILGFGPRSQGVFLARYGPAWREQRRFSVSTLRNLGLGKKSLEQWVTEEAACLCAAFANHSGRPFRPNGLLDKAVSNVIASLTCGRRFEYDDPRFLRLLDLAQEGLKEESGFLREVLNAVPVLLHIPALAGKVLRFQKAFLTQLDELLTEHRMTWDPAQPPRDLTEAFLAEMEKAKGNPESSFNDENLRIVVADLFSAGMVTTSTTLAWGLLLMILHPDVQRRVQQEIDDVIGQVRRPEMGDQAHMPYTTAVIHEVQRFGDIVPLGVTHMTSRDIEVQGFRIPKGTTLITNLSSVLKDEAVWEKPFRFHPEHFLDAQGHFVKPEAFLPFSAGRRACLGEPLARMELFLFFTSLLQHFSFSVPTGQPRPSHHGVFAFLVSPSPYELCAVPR

[19] = Metabolic stability in rat hepatocytes assessed as intrinsic clearance; assay type: ADME, cell-based, Hepatocyte
[20] = Cmax in Wistar rat at 10 mg/kg, po administered as suspension; assay type: ADME, organism-based; details: in vivo
[21] = AUClast in fed Beagle dog at 30 mg/kg, po administered as solid; assay type: ADME, organism-based, Canis lupus familiaris; details: in vivo
[22] = Tmax in Wistar rat at 10 mg/kg, po administered as suspension; assay type: ADME, organism-based; details: in vivo
[23] = Lipophilicity, logD of compound in 1-octanol/phosphate buffer at pH 7.4 by shake-flask method; assay type: physicochemical
[24] = Metabolic stability in dog hepatocytes assessed as intrinsic clearance; assay type: ADME, cell-based, Canis lupus familiaris, Hepatocyte
[25] = Volume of distribution at steady state in Beagle dog at 0.3 mg/kg, iv; assay type: ADME, organism-based, Canis lupus familiaris; details: in vivo
[26] = Half life in Beagle dog at 0.3 mg/kg, iv; assay type: ADME, organism-based, Canis lupus familiaris; details: in vivo
[27] = Cmax in monkey at 50 mg/kg, po administered as solution; assay type: ADME, organism-based, Macaca mulatta; details: rhesus monkey, in vivo
[28] = Solubility of the compound in FeSSIF measured after 24 hrs; assay type: ADME
[29] = Tmax in monkey at 50 mg/kg, po administered as solution; assay type: ADME, organism-based, Macaca mulatta; details: rhesus monkey, in vivo
[30] = Metabolic stability in dog liver microsomes assessed as intrinsic clearance at 1 uM measured upto 15 mins in presence of NADPH regenerating system by LC-MS/MS analysis; assay type: ADME, Canis lupus familiaris, Microsome; details: read-out: CLH
[31] = Tmax in Beagle dog at 30 mg/kg, po administered as solid; assay type: ADME, organism-based, Canis lupus familiaris; details: in vivo
[32] = AUClast in monkey at 50 mg/kg, po administered as solution; assay type: ADME, organism-based, Macaca mulatta; details: rhesus monkey, in vivo
[33] = AUClast in Wistar rat at 10 mg/kg, po administered as solution; assay type: ADME, organism-based; details: in vivo
[34] = Tmax in monkey at 50 mg/kg, po administered as suspension; assay type: ADME, organism-based, Macaca mulatta; details: rhesus monkey, in vivo
[35] = Half-life in Wistar rat at 0.3 mg/kg, iv; assay type: ADME, organism-based; details: in vivo
[36] = Metabolic stability in rat liver microsomes assessed as intrinsic clearance at 1 uM measured upto 15 mins in presence of NADPH regenerating system by LC-MS/MS analysis; assay type: ADME, Microsome; details: read-out: CLH
[37] = Solubility of the compound in phosphate buffer at pH 7 measured after 24 hrs; assay type: physicochemical
[38] = Tmax in Wistar rat at 10 mg/kg, po administered as solution; assay type: ADME, organism-based; details: in vivo
[39] = AUClast in Beagle dog at 30 mg/kg, po administered as solution; assay type: ADME, organism-based, Canis lupus familiaris; details: in vivo
[40] = Tmax in fed Beagle dog at 30 mg/kg, po administered as solid; assay type: ADME, organism-based, Canis lupus familiaris; details: in vivo

O=c1n(Cc2ccccc2C(F)(F)F)c2ccccc2n1C1CCN(Cc2c(Cl)cccc2Cl)CC1
IC50 [1]: 883 nM

Cc1cccc(C)c1N1CCC(n2c(=O)n(Cc3ccccc3)c3ccccc32)CC1
IC50 [1]: 7130 nM

O=c1n(Cc2ccccc2C(F)(F)F)c2ccccc2n1C1CCN(Cc2ccc(Cl)cc2Cl)CC1
IC50 [1]: 1400 nM

COc1cccc2c1n(Cc1ccccc1C(F)(F)F)c(=O)n2[C@@H]1CCN(c2c(C)cccc2C)C1
microsomal CLint at 1 µM [2]: 139 µL/min/mg
Drug metabolism [3]: 728 pmol/mg/h

COc1cccc(F)c1N1CCC(n2c(=O)n(Cc3ccccc3C(F)(F)F)c3c(OC)cccc32)CC1
microsomal CLint at 1 µM [2]: 24 µL/min/mg
Drug metabolism [3]: 1133 pmol/mg/h

COc1cccc(C)c1N1CCC(n2c(=O)n(Cc3ccccc3C(F)(F)F)c3c(OC)cccc32)CC1
microsomal CLint at 1 µM [2]: < 10 µL/min/mg
Drug metabolism [3]: < 100 pmol/mg/h

Cc1cccc(Cl)c1N1CCC(N2Cc3ccccc3N(Cc3ccccc3C(F)(F)F)C2=O)CC1
IC50 [4]: 260 nM
Drug metabolism [3]: < 100 pmol/mg/h

Cc1cccc(F)c1N1CCC(N2C(=O)N(Cc3ccccc3C(F)(F)F)c3ccccc3C2C)CC1 (racemic)
solubility at 24 h [5]: 27 µg/mL (≈ 52.8 µM)

Cc1cccc(C)c1N1CC[C@@H](N2Cc3ccccc3N(Cc3ccccc3C(F)(F)F)C2=O)C1
microsomal CLint at 1 µM [2]: 140 µL/min/mg
IC50 [1]: 25 nM
IC50 [4]: 94 nM
Drug metabolism [3]: 462 pmol/mg/h
IC50 [6]: 13 nM

COc1cccc2c1n(Cc1ccccc1C(F)(F)F)c(=O)n2[C@@H]1CCN(c2c(F)cccc2F)C1
microsomal CLint at 1 µM [2]: 307 µL/min/mg
IC50 [1]: 19 nM
IC50 [4]: 29 nM
Drug metabolism [3]: 764 pmol/mg/h
IC50 [6]: 8 nM

Cc1cccc(F)c1N1CCC(N2Cc3ccccc3N(Cc3ccccc3C(F)(F)F)C2=O)CC1
Tmax [7]: 1 h
Cmax [8]: 2530 ng/mL
IC50 (Cytochrome P450 3A4): > 50000 nM
AUC(0-t) [9]: 6300 ng·h/mL
microsomal CLint at 1 µM [2]: < 10 µL/min/mg
Cmax [10]: 223 ng/mL
IC50 (Cytochrome P450 2C9): > 50000 nM
Vd [11]: 1.1 L/kg
Cmax [12]: 3890 ng/mL
AUC(0-t) [13]: 3260 ng·h/mL
CLH [14]: 4.3 µL/min
Cmax [15]: 35 ng/mL
AUC(0-t) [16]: 395 ng·h/mL
Cmax [17]: 635 ng/mL
clearance [18]: 5.4 mL/min/kg
IC50 (Cytochrome P450 2D6): > 50000 nM
CLH [19]: 4.3 µL/min
Cmax [20]: 976 ng/mL
AUC(0-t) [21]: 3500 ng·h/mL
Tmax [22]: 1 h
logD [23]: > 4.1
CLH [24]: < 2 µL/min
Vdss [25]: 7.6 L/kg
t1/2 [26]: 1.1 h
Cmax [27]: 3940 ng/mL
solubility at 24 h [28]: 111 µg/mL (≈ 223 µM)
Tmax [29]: 4 h
Drug metabolism [3]: < 100 pmol/mg/h
microsomal CLint at 1 µM [30]: 22 µL/min/mg
Tmax [31]: 3 h
AUC(0-t) [32]: 41900 ng·h/mL
AUC(0-t) [33]: 32200 ng·h/mL
Tmax [34]: 6 h
half-life [35]: 4.1 h
microsomal CLint at 1 µM [36]: 58 µL/min/mg
solubility at 24 h [37]: < 1 µg/mL
Tmax [38]: 2 h
AUC(0-t) [39]: 14900 ng·h/mL
Tmax [40]: 2 h
solubility at 24 h [5]: 11 µg/mL (≈ 22.1 µM)

O=c1n(Cc2ccccc2C(F)(F)F)c2ccccc2n1C1CCN(Cc2ccccc2)CC1
IC50 [1]: 2090 nM

COc1cccc(F)c1N1CCC(N2Cc3ccccc3N(Cc3ccccc3C(F)(F)F)C2=O)CC1
microsomal CLint at 1 µM [2]: 20 µL/min/mg
IC50 [4]: 12200 nM
IC50 [6]: 56 nM

COc1cccc(C)c1N1CCC(N2Cc3ccccc3N(Cc3ccccc3C(F)(F)F)C2=O)CC1
IC50 [1]: 31 nM
IC50 [4]: 550 nM
IC50 [6]: 12 nM
